Converted amounts (≈) assume the structure as drawn.
System: Tacaribe virus
Assay: Antiviral activity against Tacaribe virus TRVL11573
Assay type: functional, organism-based
Settings: Mammarenavirus tacaribeense

COc1ccc(NC(=O)CC2SC(N3N=C(c4ccccc4)CC3c3ccc(OC)cc3)=NC2=O)cc1 (stereo unspecified)
EC50: 0.71 µg/mL (≈ 1.38 µM)
